Results published in paper PMC4467398, “Preclinical antitumor activity of ST7612AA1: a new oral thiol-based histone deacetylase (HDAC) inhibitor” (Oncotarget, 2014).

Test system: DOHH2 and TMD8 DLBCL cells
Assay: Gene expression profiling (HumanHT-12 v4 BeadChip, limma), ST7612AA1 300 nM 8 hrs vs DMSO
Format: cell-based, human
Settings: 300 nM 8 hrs vs DMSO

CC(=O)SCCCCC[C@H](NC(=O)[C@H]1CCC(=O)N1)C(=O)Nc1ccccc1 [ST7612AA1]
log ratio ESAM (probe ILMN_1668092): 7.54E-01
log ratio EVI2A (ILMN_1733579): -1.21E+00
log ratio EXOSC8 (ILMN_1756162): -8.59E-01
log ratio EXTL2 (ILMN_2388425): 6.00E-01
log ratio F11R (probe ILMN_2342033): 8.81E-01
log ratio FAIM (ILMN_1690101): -1.08E+00
log ratio FAIM (ILMN_2351548): -9.70E-01
log ratio FAM49A (ILMN_1794038): 6.23E-01
log ratio FAM65A (probe ILMN_1680037): 7.70E-01
log ratio FAM108A2 (ILMN_3178529): 6.40E-01
log ratio FAM110A (ILMN_2323944): 6.14E-01
log ratio FAM116B (probe ILMN_1659029): 7.74E-01
log ratio FAM120B (probe ILMN_1679641): 7.62E-01
log ratio FAM136A (ILMN_1655307): -1.26E+00
log ratio FAM136B (ILMN_3241756): -7.94E-01
log ratio FAM149B1 (probe ILMN_3245452): 7.21E-01
log ratio FAM160B1 (ILMN_3231638): -6.11E-01
log ratio FAM164A (ILMN_1789558): 6.20E-01
log ratio FAM167A (probe ILMN_3248511): 7.13E-01
log ratio FBXO15 (ILMN_1755281): 6.57E-01
log ratio FBXO18 (probe ILMN_1729430): 7.97E-01
log ratio FCGRT (probe ILMN_1705302): 6.92E-01
log ratio FCHSD2 (ILMN_1815734): -6.17E-01
log ratio FERMT3 (ILMN_2366330): -1.23E+00
log ratio FGD2 (probe ILMN_2115005): 7.14E-01
log ratio FGF9 (probe ILMN_1762531): 7.84E-01
log ratio FHL1 (probe ILMN_1805842): 7.76E-01
log ratio FKBP11 (ILMN_1787345): -9.71E-01
log ratio FLJ22795 (probe ILMN_2150802): 8.56E-01
log ratio FNBP1 (ILMN_1797342): 6.67E-01
log ratio FOXC1 (probe ILMN_1738401): 8.63E-01
log ratio FOXO1 (probe ILMN_1738816): 8.61E-01
log ratio FOXO4 (probe ILMN_1712095): 6.93E-01
log ratio FSD1 (probe ILMN_1813490): 7.25E-01
log ratio FUCA1 (probe ILMN_1752728): 8.57E-01
log ratio FVT1 (ILMN_2154052): 6.36E-01
log ratio FXYD5 (ILMN_2309848): 6.27E-01
log ratio G6PD (probe ILMN_1697559): 6.93E-01
log ratio GABARAPL2 (probe ILMN_1796458): 7.62E-01
log ratio GAMT (probe ILMN_1756469): 8.74E-01
log ratio GAPT (ILMN_1675191): -1.10E+00
log ratio GAPT (ILMN_3242271): -1.08E+00
log ratio GAR1 (ILMN_2412549): -9.54E-01
log ratio GAR1 (ILMN_3263329): -9.36E-01
log ratio GATM (probe ILMN_1729180): 7.75E-01
log ratio GATS (ILMN_1699631): 6.00E-01
log ratio GBE1 (ILMN_1789702): -8.91E-01
log ratio GCDH (ILMN_2296843): 6.56E-01
log ratio GCH1 (probe ILMN_1812759): 7.11E-01
log ratio GINS3 (ILMN_1754272): -8.17E-01
log ratio GM2A (ILMN_2221046): 5.90E-01
log ratio GMEB2 (ILMN_1683204): -5.99E-01
log ratio GNG11 (ILMN_1782419): 6.02E-01
log ratio GOLGB1 (probe ILMN_1747935): 7.13E-01
log ratio GPATCH4 (ILMN_2383305): -1.16E+00
log ratio GPATCH4 (ILMN_2383306): -1.12E+00
log ratio GPER (ILMN_1795298): -1.70E+00
log ratio GPER (ILMN_2384056): -1.82E+00
log ratio GPT2 (probe ILMN_1684158): 8.12E-01
log ratio GPX4 (ILMN_1734353): 6.05E-01
log ratio GPX7 (ILMN_1726030): -1.08E+00
log ratio GRB2 (ILMN_1748797): 6.01E-01
log ratio GRN (probe ILMN_1724250): 8.24E-01
log ratio GRWD1 (ILMN_1742166): -6.02E-01
log ratio GSDMB (ILMN_2347193): 6.61E-01
log ratio GSTO1 (ILMN_2227573): -6.01E-01
log ratio GTF2B (ILMN_1737857): 6.21E-01
log ratio GTF2I (ILMN_1673917): -1.01E+00
log ratio GTF2IRD2B (ILMN_1680501): -1.15E+00
log ratio GTF3C2 (ILMN_1746457): -7.85E-01
log ratio GTF3C6 (ILMN_1691578): -1.19E+00
log ratio GTPBP6 (ILMN_1776080): -8.00E-01
log ratio HABP4 (ILMN_1792384): 5.90E-01
log ratio HABP4 (probe ILMN_2107991): 7.82E-01
log ratio HAGH (probe ILMN_1772731): 8.84E-01
log ratio HCFC1 (ILMN_1732705): -1.50E+00
log ratio HDDC2 (ILMN_1753745): -8.45E-01
log ratio HDGF (ILMN_1765621): -8.47E-01
log ratio HERC1 (probe ILMN_1786211): 7.40E-01
log ratio HERC6 (ILMN_1654639): -6.08E-01
log ratio HERPUD1 (probe ILMN_2374159): 8.50E-01
log ratio HEY1 (probe ILMN_1788203): 8.91E-01
log ratio HEY2 (probe ILMN_1682034): 7.56E-01
log ratio HIST1H1C (probe ILMN_1757406): 8.24E-01
log ratio HIST2H2AA3 (probe ILMN_2144426): 8.03E-01
log ratio HK2 (ILMN_1723486): -1.09E+00
log ratio HLA-DOA (ILMN_1659075): 6.55E-01
log ratio HLA-DPA1 (probe ILMN_1772218): 8.12E-01
log ratio HLA-DQA1 (probe ILMN_1808405): 8.25E-01
log ratio HLA-DRB4 (probe ILMN_1752592): 7.27E-01
log ratio HLA-DRB6 (ILMN_2066066): 5.94E-01
log ratio HLA-E (probe ILMN_1765258): 8.07E-01
log ratio HLTF (ILMN_1798588): 6.54E-01
log ratio HLTF (probe ILMN_1673820): 7.48E-01
log ratio HNRNPR (ILMN_3177285): -5.97E-01
log ratio HNRPH3 (ILMN_1654920): -7.98E-01
log ratio HNRPLL (ILMN_1791575): 6.20E-01
log ratio HOOK2 (probe ILMN_1682147): 7.36E-01
log ratio HPSE (ILMN_1779547): 5.94E-01
log ratio HSD17B8 (ILMN_1715324): 6.72E-01
log ratio HSPA1B (probe ILMN_1660436): 7.16E-01
log ratio HSPC111 (ILMN_1704055): -1.16E+00
log ratio ID1 (probe ILMN_1664861): 7.75E-01
log ratio IFFO1 (probe ILMN_2348268): 8.07E-01
log ratio IFI16 (ILMN_1710937): -9.06E-01
log ratio IFI35 (ILMN_1745374): -8.00E-01
log ratio IFRD2 (ILMN_1742031): -7.99E-01
log ratio IGSF3 (probe ILMN_1704353): 8.50E-01
log ratio INTS10 (ILMN_1679483): -8.21E-01
log ratio IRAK1 (ILMN_2379130): -1.37E+00
log ratio IRAK2 (ILMN_1745964): 6.17E-01
log ratio ISG20L1 (ILMN_1814282): -8.55E-01
log ratio ISOC2 (ILMN_1769158): -9.83E-01
log ratio ITFG2 (ILMN_1701244): -8.71E-01
log ratio ITFG3 (ILMN_1810055): 6.64E-01
log ratio ITGA4 (ILMN_1747052): -6.00E-01
log ratio ITGB1 (ILMN_1723467): 6.32E-01
log ratio ITGB1 (ILMN_2383934): 6.80E-01
log ratio ITGB1 (probe ILMN_1714820): 7.06E-01
log ratio ITPKA (probe ILMN_1776516): 7.10E-01
log ratio JAK1 (probe ILMN_1793384): 7.91E-01
log ratio KAT2A (ILMN_1782247): -6.02E-01
log ratio KBTBD2 (ILMN_1784540): -6.12E-01
log ratio KEAP1 (ILMN_2410771): -8.88E-01
log ratio KEAP1 (ILMN_2410772): -9.23E-01
log ratio KIAA0020 (ILMN_1665483): -7.91E-01
log ratio KIAA0368 (ILMN_1847822): -1.24E+00
log ratio KIAA1602 (ILMN_1763640): 6.30E-01
log ratio KIF3B (ILMN_1702279): 6.21E-01
log ratio KIFC2 (ILMN_1803018): 6.72E-01
log ratio KLF9 (ILMN_1778523): 6.77E-01
log ratio KLHDC5 (ILMN_1727134): -1.09E+00
log ratio KLHL5 (probe ILMN_1706687): 8.05E-01
log ratio KLRAQ1 (probe ILMN_3271092): 7.11E-01
log ratio KPNB1 (ILMN_1703949): -1.01E+00
log ratio L3MBTL2 (ILMN_3307786): -8.52E-01
log ratio LAMC1 (ILMN_1810852): 6.63E-01
log ratio LANCL2 (ILMN_1708009): -8.15E-01
log ratio LARP1B (ILMN_1733390): -7.84E-01
log ratio LASS2 (ILMN_1726108): -7.85E-01
log ratio LASS2 (ILMN_2400500): -9.26E-01
log ratio LCMT1 (probe ILMN_1688452): 7.21E-01
log ratio LCMT1 (probe ILMN_2336186): 7.52E-01
log ratio LIN9 (ILMN_2137084): -6.10E-01
log ratio LMNA (probe ILMN_1737394): 7.98E-01
log ratio LOC151162 (probe ILMN_3238058): 7.72E-01
log ratio LOC205251 (ILMN_1693685): -6.17E-01
log ratio LOC253039 (probe ILMN_3236498): 8.10E-01
log ratio LOC283683 (probe ILMN_1659327): 8.30E-01
log ratio LOC285176 (ILMN_1694327): -5.99E-01
